Laboratory results reported in publication PMC8020795 (Proceedings of the National Academy of Sciences of the …, 2021).

Assays:
JHH-7 cells = assay: Western blot of phospho-ERK and phospho-AKT after CXCL12 stimulation; format: cell-based, human; settings: 10 µM, CXCL12 stimulation
Method: Western blotting was conducted by following standard procedures. HCA-1 or JHH-7 cells (10^5 cells per well) were seeded in 12-well plates (Costar, IL), incubated for 12 h and […]
containing (100 ng/mL) serum-free medium. After 24 h, the cells were lysed in RIPA buffer on ice for 30 min, and samples were collected and loaded with 4× Laemmli Sample buffer (Bio-Rad, Hercules, CA). The samples were separated on a 10% SDS-PAGE gels and transferred to PVDF membranes. After blocking with skim milk for 1 h, the membranes were incubated at 4°C overnight with primary antibodies against p -AKT, AKT, p-ERK, ERK (Cell Signaling, Danvers, MA) or β-actin (Sigma-Aldrich, St. Louis, MO) before incubation with HRP-conjugated secondary antibodies (Antibodies Inc., Davis, CA) for 1 h. […]
Total RNA was extracted from HCA-1 cells using the RNeasy Mini Kit (Qiagen, CA, USA). cDNAs were synthesized using the High-Capicity cDNA Reverse Transcription Kit […]
Biosystems, CA, USA) on a QPCR System. The comparative threshold cycle method was used to calculate fold change in gene expression, which was normalized to β-actin as a […]

hERG (human K+ channel) = target: T1, hERG (human K+ channel) (Homo sapiens, UniProt Q12809); assay: hERG patch-clamp assay (hERG-CHO, automated patch-clamp); format: cell-based
T1 construct: host or cells: CHO (hERG-CHO)
T1 sequence (Q12809 whole entry): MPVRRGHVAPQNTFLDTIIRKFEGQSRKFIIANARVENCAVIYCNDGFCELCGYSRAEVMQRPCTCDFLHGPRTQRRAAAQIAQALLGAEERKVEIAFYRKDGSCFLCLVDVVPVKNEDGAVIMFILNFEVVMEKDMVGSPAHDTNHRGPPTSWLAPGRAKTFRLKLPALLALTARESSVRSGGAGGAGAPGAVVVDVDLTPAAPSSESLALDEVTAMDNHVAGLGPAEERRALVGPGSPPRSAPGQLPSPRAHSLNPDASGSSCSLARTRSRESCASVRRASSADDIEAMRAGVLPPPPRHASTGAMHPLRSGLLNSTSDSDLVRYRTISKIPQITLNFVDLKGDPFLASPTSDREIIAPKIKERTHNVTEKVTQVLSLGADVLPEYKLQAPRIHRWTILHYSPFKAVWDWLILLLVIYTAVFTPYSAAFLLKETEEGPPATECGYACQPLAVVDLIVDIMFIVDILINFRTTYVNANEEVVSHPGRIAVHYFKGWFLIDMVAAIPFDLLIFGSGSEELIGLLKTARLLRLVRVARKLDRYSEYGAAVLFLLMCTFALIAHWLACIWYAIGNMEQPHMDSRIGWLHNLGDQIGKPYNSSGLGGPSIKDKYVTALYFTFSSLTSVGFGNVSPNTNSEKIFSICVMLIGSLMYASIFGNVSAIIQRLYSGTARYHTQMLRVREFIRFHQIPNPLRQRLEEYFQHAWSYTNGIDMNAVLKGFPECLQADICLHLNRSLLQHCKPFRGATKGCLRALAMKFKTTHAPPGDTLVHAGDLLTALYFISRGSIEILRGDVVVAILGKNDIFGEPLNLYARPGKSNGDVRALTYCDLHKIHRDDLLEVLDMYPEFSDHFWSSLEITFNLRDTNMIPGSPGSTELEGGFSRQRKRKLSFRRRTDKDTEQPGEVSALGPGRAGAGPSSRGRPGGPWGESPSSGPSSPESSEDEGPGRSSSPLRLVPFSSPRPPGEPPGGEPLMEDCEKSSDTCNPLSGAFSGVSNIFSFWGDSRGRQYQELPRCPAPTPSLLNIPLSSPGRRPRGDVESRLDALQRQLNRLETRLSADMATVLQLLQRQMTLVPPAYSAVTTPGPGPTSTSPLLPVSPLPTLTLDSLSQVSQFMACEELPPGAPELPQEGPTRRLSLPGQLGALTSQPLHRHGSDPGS
Source text: (§1) page 16: Table: List of genes examined by real-time PCR and the primer sequences used. Genes Forward primers Reverse primers Slug [NT] Fn1 [NT] Cdh2 […] Foxc2 [NT] Zeb1 [NT] Zeb2 [NT] Twist1 [NT] Cdh1 [NT] Mta3 [NT] Cldn3 [NT] Cldn5 [NT] β-actin […] [NT] Off-target standard assays Methods employed in this study have been adapted from the scientific literature to maximize reliability and reproducibility. Reference standards were run as an integral part of each assay to ensure the validity of the results obtained. Radioligand binding Assays were performed under conditions described in the accompanying "Methods" section of this report by Eurofins Panlabs, Inc (Taipei, Taiwan, ROC). hERG patch-clamp assay BPRCX807 were tested in the hERG (hERG-CHO, automated patch-clamp) assay and determined at Eurofins Panlabs (Missouri, USA). The experiment was accepted in accordance with Eurofins validation Standard Operating Procedure. Selectivity Screening of various chemokine receptors The results were performed by Eurofins DiscoverX (Fremont, California, USA). The S15

hERG = target: T2, hERG (Homo sapiens, UniProt Q12809); assay: as above; format: cell-based; settings: human, CHO cells that express hERG
T2 construct: host or cells: CHO (hERG-CHO)
T2 sequence (Q12809 whole entry): as above
Source text: as §1

HCA-1 cells = assay: Wound healing assay; format: cell-based, murine; settings: CXCL12 100 ng/mL, BPRCX807 10 μM, 24, 48, 72 h
Method: [3-(2-Aminomethyl-oxazol-4-yl)-propyl]-[3-(tert-butoxycarbonyl-cyclohexyl-amino)- propyl]-carbamic acid tert-butyl ester (Linker 1). A mixture of L1-6 (10.35 g, 16.5 mmol) and 10% Pd/C (4.66 g) in iso-propanol (310 mL) was stirred under H2(g) at 50 °C for 15 h.
The resulting mixture was filtered, and the filtrate was concentrated to afford Linker 1 (7.23 g, […]
Wound healing and invasion assays
Cell migration ability was measured by wound healing assay. HCA-1 cells (5 × 10^5 cells per well) were seeded onto 12-well plates and incubated overnight. When the cell confluence exceeded 90%, scratch wounds were made by scraping a straight line in the middle of the cell layer using the tip of a 1000 µL pipette. After washing the cells with PBS, the cells were incubated in serum-free medium under different treatment conditions (control, 100 ng/mL CXCL12, and 10 µM BPRCX807 with 100 ng/mL CXCL12). Then, 3-4 fields (40×) of each group were randomly chosen and observed by a microscope (IX83, Olympus, Japan) at time points of 0 h, 24h, 48 h and 72 h. For the invasion assay, HCA-1 cells were suspended in RPMI 1640 containing 0.5% FBS and then preincubated with the indicated concentrations of compounds for 10 min at 37 °C. […] After 17.5 h of incubation at 37 °C, the cells in both chambers of the inserts were measured with a CellTiter-Glo Luminescent Cell Viability Assay (Promega, Wisconsin). […]

With Cc1cc(NC2CCN(C(=O)CCNCC(=O)O)CC2)nc(NCc2nc(CCCNCCCNC3CCCCC3)co2)n1 [BPRCX807] the “CXCR4/CXCL12-triggered ERK and Akt activation” value (JHH-7 cells) was “suppress CXCR4/CXCL12-triggered ERK and Akt activation more significantly than its counterparts”, the IC50 (hERG (human K+ channel)) was greater than 100 µM and the inhibition at 1 µM (hERG; 1 µM) was 13.8%. For the same compound, the inhibition at 10 µM (hERG; 10 µM) was 9%, the inhibition at 100 µM (hERG; 100 µM) was 17.4% and the “CXCL12-induced wound closure rate” value (HCA-1 cells) was “significantly suppressed”.
